The values that follow come from article PMC12624955, “Exploring diarylheptanoid derivatives to target LIMK1 as potential agents against colorectal cancer” (Journal of Enzyme Inhibition and Medicinal Chemistry, 2025).

Experiment [1] has as its target T1, LIMK1 (Homo sapiens, UniProt P53667).
T1 construct: purchased Thermo Fisher Scientific (SelectScreen Kinase assay service)
Briefly: LanthaScreen Eu kinase binding assay (SelectScreen), LIMK1 inhibition. The method, then: The inhibitory activities of the compounds against kinases were tested using the SelectScreen Kinase assay from Thermo Fisher Scientific in Waltham, MA, USA. The LanthaScreen Eu kinase binding assay was used to validate the LIMK1 inhibition activity of the compounds, and was performed according to the manufacturer’s protocol (https://www.thermofisher.com/tw/zt/home/industrial/pharma-biopharma/drug-discovery-development/target-and-lead-identification-and-validation/kinasebiology/kinase-activity-assays/lanthascreentm-eu-kinase-binding-assay/lanthascreen-eu-kinase-binding-assay-validation-table.html). This endpoint assay quantifies inhibitor binding through the displacement of a fluorescently labelled ATP-competitive tracer from LIMK1. A mixture of the 100× compounds, 2× LIMK1/antibody mixture (Eu-anti-His), 4× tracer 236, and kinase buffer were mixed sequentially. After incubation at room temperature for 1 h, the mixture was analysed using a fluorescence plate reader. The kinase inhibition assay results were expressed as the average of two replicates.
For orientation: TR-FRET usually uses a lanthanide donor and a delayed reading to cut background.

Experiment [2] has as its target T2, CSNK1G1 (CK1 gamma 1) (Homo sapiens, UniProt Q9HCP0).
T2 construct: purchased Thermo Fisher Scientific SelectScreen
Briefly: SelectScreen kinase panel, Z′-LYTE kinase assay. In kind it is biochemical. Conditions: read-out: Inhibition percentage at 1 μM. The method, then: (§1) Kinase panel screening was carried out using the SelectScreen Kinase Assay (Thermo Fisher Scientific, Waltham, MA, USA). Three complementary assay formats were applied: the Z′-LYTE kinase assay, LanthaScreen Eu kinase binding assay, and Adapta Universal kinase assay. The kinases selected for this study and the corresponding assay formats are summarised in Supplementary Table S1.
(§2) The Z′-LYTE Kinase Assay (Thermo Fisher Scientific, Waltham, MA, USA) was used to evaluate selected kinases’ activity, according to the manufacturer’s instructions (https://www.thermofisher.com/tw/zt/home/industrial/pharma-biopharma/drug-discovery-development/target-and-lead-identification-and-validation/kinasebiology/kinase-activity-assays/z-lyte/z-lyte-reactivity-table.html). This endpoint assay quantifies kinase activity by detecting peptide substrate phosphorylation. Briefly, a 2× mixture of selected kinase and relevant substrate was prepared in kinase buffer (0.01% polyoxyethylene lauryl ether (BRIJ-35), 50 mM 4-(2-hydroxyethyl)-1-piperazineethanesulfonic acid (HEPES), pH 7.5, 1 mM ethylene glycol-bis(β-aminoethyl ether)-N,N,N′,N′-tetraacetic acid (EGTA), and 10 mM MgCl2). After 1 h incubation at room temperature, 5 μl of 1:128 diluted development reagent solution was added, followed by an additional 1 h incubation. Fluorescence was recorded using a multimode plate reader.

Experiment [3] addresses T3, ERBB4 (HER4) (Homo sapiens, UniProt Q15303).
T3 construct: purchased Thermo Fisher Scientific SelectScreen
Briefly: SelectScreen kinase panel, Z′-LYTE kinase assay. Conditions: read-out: Inhibition percentage at 1 μM. It is filed as biochemical. The method, then:
as §1, §2

For experiment [4], the target named is T4, FGFR1 (Homo sapiens, UniProt P11362).
T4 construct: purchased Thermo Fisher Scientific SelectScreen
The experiment can be described thus: SelectScreen kinase panel, Z′-LYTE kinase assay. It is filed as biochemical. Conditions: read-out: Inhibition percentage at 1 μM. The method, then:
as §1, §2

Experiment [5] concerns the target T5, IKBKB (IKK beta) (Homo sapiens, UniProt O14920).
T5 construct: purchased Thermo Fisher Scientific SelectScreen
Briefly: SelectScreen kinase panel, Z′-LYTE kinase assay. It is filed as biochemical. Conditions: read-out: Inhibition percentage at 1 μM. The method, then: as §1, §2

Experiment [6] deals with T6, LCK (Homo sapiens, UniProt P06239).
T6 construct: purchased Thermo Fisher Scientific SelectScreen
Briefly: SelectScreen kinase panel, Z′-LYTE kinase assay. Conditions: read-out: Inhibition percentage at 1 μM. It is filed as biochemical. The method, then: as §1, §2

For experiment [7], the target named is T7, MAP3K9 (MLK1) (Homo sapiens, UniProt P80192).
T7 construct: purchased Thermo Fisher Scientific SelectScreen
The experiment can be described thus: SelectScreen kinase panel, Z′-LYTE kinase assay. Conditions: read-out: Inhibition percentage at 1 μM. In kind it is biochemical. The method, then:
as §1, §2

The target in experiment [8] is T8, MINK1 (Homo sapiens, UniProt Q8N4C8).
T8 construct: purchased Thermo Fisher Scientific SelectScreen
The experiment can be described thus: SelectScreen kinase panel, Z′-LYTE kinase assay. In kind it is biochemical. Conditions: read-out: Inhibition percentage at 1 μM. The method, then: as §1, §2

Experiment [9] has as its target T9, NTRK1 (TRKA) (Homo sapiens, UniProt P04629).
T9 construct: purchased Thermo Fisher Scientific SelectScreen
Briefly: SelectScreen kinase panel, Z′-LYTE kinase assay. It is filed as biochemical. Particulars: read-out: Inhibition percentage at 1 μM. The method, then: as §1, §2

Experiment [10] addresses T10, PAK2 (PAK65) (Homo sapiens, UniProt Q13177).
T10 construct: purchased Thermo Fisher Scientific SelectScreen
The experiment can be described thus: SelectScreen kinase panel, Z′-LYTE kinase assay. It is filed as biochemical. Conditions: read-out: Inhibition percentage at 1 μM. The method, then: as §1, §2

Experiment [11] concerns the target T11, PIM1 (Homo sapiens, UniProt P11309).
T11 construct: purchased Thermo Fisher Scientific SelectScreen
Briefly: SelectScreen kinase panel, Z′-LYTE kinase assay. It is filed as biochemical. Particulars: read-out: Inhibition percentage at 1 μM. The method, then:
as §1, §2

Experiment [12] addresses T12, PRKACA (PKA) (Homo sapiens, UniProt P17612).
T12 construct: purchased Thermo Fisher Scientific SelectScreen
Briefly: SelectScreen kinase panel, Z′-LYTE kinase assay. It is filed as biochemical. Particulars: read-out: Inhibition percentage at 1 μM. The method, then: as §1, §2

The target of experiment [13] is T13, RPS6KA3 (RSK2) (Homo sapiens, UniProt P51812).
T13 construct: purchased Thermo Fisher Scientific SelectScreen
The experiment can be described thus: SelectScreen kinase panel, Z′-LYTE kinase assay. In kind it is biochemical. Conditions: read-out: Inhibition percentage at 1 μM. The method, then: as §1, §2

Experiment [14] deals with T14, STK3 (MST2) (Homo sapiens, UniProt Q13188).
T14 construct: purchased Thermo Fisher Scientific SelectScreen
Briefly: SelectScreen kinase panel, Z′-LYTE kinase assay. In kind it is biochemical. Conditions: read-out: Inhibition percentage at 1 μM. The method, then: as §1, §2

The test system of experiment [15] is HCT-116. Briefly: MTT assay (cell viability). It is filed as cell-based. Conditions: Homo sapiens, 72 h, mean ± SD. The method, then:
(§3) Colorectal cell line, HCT-116, was purchased from the Bioresource Collection and Research Centre (BCRC, Hsinchu, Taiwan), while HT-29 was obtained from the American Type Culture Collection (ATCC, Manassas, VA, USA). Both cell lines were maintained in McCoy’s 5 A medium (with L-glutamine and 2.2 g/L NaHCO3, M4892, Sigma) supplemented with 10% foetal bovine serum (Corning Incorporated, NY, USA) and 1% penicillin–streptomycin–amphotericin B (100 unit/ml penicillin G, 0.1 mg/ml streptomycin sulphate, 0.25 μg/ml amphotericin B, Corning Incorporated, NY, USA). All cultures were maintained in a humidified incubator at 37 °C with 5% CO2.
(§4) Cells were seeded in 96-well plates at a density of 3 × 10^3 cells/well in 100 μl of culture medium and treated with compounds at the indicated concentrations (0.3, 1, 3, 10, and 30 μM) for 72 h. Following treatment, the 3-(4,5-dimethylthiazol-2-yl)-2,5-diphenyltetrazolium bromide (MTT) solution (5 mg/ml in Phosphate-buffered saline (PBS)) was added to each well to reach a final concentration of 0.5 mg/ml, and the cells were incubated at 37 °C for 1 h. The resulting formazan crystal was dissolved in 100 µl of DMSO, and the absorbance was measured at 550 nm using an ELISA reader (Molecular Device, Sunnyvale, CA, USA).
In general terms: Formazan colour is commonly taken as a measure of viable cells.

For experiment [16], the system named is HT-29. The experiment can be described thus: MTT assay (cell viability). It is filed as cell-based. Conditions: Homo sapiens, 72 h, mean ± SD. The method, then: as §3, §4
Experiment [17] concerns HCT-116. Briefly: Analysis of cell cycle by flow cytometry. It is filed as cell-based. Conditions: HCT116; 1, 3, 10, and 30 μM for 72 h. The method, then: (§5) Cells were seeded in six-well plates at a density of 5 × 10^5 cells/well in a 2 ml culture medium and treated with compounds at the indicated concentration for 72 h. After treatment, cells were collected and fixed with 75% (v/v) ice-cold ethanol at −20 °C for 20 min. The cells were then centrifuged to remove the buffer, resuspended, and stained with 0.5 ml of propidium iodide (PI) staining buffer (80 µg/ml PI, […] RNase A, and 1% Triton X-100 in PBS). The cell cycle distribution was analysed using a BD Accuri™ Flow cytometer and software (Becton Dickinson, Mountain View, CA, USA).
For orientation: A flow cytometer gives signals particle by particle.

In experiment [18] the test system is HT-29. The experiment can be described thus: Analysis of cell cycle by flow cytometry. It is filed as cell-based. Particulars: 1, 3, 10, and 30 μM for 72 h. The method, then:
as §5

T1 sequence (P53667 whole entry): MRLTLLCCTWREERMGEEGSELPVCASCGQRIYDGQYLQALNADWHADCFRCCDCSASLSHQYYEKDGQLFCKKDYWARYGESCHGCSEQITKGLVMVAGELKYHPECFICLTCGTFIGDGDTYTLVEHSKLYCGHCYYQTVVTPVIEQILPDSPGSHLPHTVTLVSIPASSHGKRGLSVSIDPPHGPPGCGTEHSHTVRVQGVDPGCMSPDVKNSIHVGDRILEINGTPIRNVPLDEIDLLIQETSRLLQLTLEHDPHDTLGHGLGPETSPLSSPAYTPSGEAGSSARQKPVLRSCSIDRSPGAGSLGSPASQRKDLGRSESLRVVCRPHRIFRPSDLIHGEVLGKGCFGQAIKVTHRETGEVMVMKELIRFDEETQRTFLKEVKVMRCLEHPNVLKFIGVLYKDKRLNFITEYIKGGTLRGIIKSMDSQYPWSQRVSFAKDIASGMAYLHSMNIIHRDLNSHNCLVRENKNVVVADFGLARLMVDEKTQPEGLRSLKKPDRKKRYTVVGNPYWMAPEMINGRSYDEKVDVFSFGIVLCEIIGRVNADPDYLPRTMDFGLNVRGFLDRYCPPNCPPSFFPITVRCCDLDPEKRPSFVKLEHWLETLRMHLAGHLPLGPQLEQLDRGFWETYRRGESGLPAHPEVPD
T9 sequence (P04629 33-796): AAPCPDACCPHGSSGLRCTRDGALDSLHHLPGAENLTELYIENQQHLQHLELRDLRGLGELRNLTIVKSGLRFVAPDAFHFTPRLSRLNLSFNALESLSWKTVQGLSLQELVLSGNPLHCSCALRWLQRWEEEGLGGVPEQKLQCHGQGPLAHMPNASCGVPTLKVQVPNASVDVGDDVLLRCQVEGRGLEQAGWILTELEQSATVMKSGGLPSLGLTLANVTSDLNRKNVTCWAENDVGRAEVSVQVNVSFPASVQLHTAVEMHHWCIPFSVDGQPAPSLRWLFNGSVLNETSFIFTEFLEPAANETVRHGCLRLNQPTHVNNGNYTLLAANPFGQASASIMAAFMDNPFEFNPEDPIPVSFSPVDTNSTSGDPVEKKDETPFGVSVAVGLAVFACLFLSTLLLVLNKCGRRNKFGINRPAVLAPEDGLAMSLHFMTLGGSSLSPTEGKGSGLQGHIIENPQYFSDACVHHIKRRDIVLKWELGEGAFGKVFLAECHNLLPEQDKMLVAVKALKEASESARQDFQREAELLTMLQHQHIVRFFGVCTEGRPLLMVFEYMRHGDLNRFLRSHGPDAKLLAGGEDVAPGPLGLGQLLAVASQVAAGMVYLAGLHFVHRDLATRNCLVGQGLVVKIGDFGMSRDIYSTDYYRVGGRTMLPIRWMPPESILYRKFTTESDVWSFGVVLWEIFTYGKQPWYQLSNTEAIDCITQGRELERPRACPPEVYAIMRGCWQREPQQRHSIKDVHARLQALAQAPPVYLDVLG
T5 sequence (O14920 whole entry): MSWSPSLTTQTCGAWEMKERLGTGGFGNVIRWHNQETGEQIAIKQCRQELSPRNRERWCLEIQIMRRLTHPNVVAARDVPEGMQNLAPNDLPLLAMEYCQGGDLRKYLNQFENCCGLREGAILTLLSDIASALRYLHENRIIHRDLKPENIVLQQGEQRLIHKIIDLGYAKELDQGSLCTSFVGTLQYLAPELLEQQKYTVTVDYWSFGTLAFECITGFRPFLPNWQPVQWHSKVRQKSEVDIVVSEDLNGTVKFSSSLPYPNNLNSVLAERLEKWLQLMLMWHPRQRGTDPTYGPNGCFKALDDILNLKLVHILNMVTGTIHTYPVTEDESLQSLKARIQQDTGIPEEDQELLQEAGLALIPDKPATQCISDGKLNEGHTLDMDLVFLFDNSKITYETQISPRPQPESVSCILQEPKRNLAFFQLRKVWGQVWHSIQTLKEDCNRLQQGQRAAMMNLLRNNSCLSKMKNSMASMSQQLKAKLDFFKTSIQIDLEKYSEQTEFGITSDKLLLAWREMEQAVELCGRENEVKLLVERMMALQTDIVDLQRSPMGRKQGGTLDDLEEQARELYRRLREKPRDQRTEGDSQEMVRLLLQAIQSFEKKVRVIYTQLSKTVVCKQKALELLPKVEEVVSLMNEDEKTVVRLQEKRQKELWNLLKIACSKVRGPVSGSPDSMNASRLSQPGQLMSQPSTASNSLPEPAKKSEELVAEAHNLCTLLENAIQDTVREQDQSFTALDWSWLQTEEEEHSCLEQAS
T7 sequence (P80192 whole entry): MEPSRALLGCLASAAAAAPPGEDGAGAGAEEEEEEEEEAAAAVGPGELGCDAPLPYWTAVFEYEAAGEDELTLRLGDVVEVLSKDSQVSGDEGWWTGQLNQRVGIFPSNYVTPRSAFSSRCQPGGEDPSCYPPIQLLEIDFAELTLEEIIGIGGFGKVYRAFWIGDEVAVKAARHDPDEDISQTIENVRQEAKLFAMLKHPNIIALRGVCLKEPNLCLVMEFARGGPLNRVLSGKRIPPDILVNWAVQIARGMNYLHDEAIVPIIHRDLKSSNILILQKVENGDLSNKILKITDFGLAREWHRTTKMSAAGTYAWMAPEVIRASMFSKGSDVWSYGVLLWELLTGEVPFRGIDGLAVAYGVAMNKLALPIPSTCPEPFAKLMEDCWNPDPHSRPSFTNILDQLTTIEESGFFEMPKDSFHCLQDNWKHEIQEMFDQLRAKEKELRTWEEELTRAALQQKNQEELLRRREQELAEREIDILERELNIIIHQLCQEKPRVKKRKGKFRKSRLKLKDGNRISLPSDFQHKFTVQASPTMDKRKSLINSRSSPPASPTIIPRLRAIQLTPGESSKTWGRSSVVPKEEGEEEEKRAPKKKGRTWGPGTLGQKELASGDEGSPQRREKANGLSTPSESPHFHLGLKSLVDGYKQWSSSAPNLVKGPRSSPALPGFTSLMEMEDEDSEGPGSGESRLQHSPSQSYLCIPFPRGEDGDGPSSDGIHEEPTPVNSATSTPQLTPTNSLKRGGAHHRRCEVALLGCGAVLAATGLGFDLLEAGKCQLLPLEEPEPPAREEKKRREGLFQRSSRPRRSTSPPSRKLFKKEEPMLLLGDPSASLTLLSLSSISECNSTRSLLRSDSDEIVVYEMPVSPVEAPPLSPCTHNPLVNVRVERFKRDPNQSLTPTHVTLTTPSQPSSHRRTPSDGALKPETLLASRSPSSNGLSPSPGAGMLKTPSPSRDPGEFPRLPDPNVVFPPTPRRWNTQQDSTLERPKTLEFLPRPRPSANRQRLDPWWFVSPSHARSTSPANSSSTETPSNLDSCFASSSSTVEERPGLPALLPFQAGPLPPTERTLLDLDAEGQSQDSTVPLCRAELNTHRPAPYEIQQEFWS
T2 sequence (Q9HCP0 whole entry): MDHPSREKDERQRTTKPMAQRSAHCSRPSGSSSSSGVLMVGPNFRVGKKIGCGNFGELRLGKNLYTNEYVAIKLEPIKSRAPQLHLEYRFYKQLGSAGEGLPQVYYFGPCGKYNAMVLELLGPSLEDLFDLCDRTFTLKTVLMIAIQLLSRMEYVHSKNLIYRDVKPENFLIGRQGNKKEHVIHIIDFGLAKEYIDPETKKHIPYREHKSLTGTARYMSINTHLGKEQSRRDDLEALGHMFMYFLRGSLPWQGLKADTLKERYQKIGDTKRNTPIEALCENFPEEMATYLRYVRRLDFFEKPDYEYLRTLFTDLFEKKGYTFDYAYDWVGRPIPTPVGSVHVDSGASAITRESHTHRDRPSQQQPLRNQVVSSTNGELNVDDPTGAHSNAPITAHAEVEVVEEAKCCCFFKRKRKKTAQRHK
T11 sequence (P11309 whole entry): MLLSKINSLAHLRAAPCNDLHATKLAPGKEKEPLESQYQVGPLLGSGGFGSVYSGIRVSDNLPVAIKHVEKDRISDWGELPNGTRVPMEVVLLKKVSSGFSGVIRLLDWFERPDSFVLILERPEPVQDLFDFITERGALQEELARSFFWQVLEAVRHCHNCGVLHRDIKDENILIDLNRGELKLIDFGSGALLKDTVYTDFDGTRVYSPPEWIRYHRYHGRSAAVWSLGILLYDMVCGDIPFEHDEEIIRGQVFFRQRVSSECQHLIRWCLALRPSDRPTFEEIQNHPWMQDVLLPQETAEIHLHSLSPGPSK
T6 sequence (P06239 whole entry): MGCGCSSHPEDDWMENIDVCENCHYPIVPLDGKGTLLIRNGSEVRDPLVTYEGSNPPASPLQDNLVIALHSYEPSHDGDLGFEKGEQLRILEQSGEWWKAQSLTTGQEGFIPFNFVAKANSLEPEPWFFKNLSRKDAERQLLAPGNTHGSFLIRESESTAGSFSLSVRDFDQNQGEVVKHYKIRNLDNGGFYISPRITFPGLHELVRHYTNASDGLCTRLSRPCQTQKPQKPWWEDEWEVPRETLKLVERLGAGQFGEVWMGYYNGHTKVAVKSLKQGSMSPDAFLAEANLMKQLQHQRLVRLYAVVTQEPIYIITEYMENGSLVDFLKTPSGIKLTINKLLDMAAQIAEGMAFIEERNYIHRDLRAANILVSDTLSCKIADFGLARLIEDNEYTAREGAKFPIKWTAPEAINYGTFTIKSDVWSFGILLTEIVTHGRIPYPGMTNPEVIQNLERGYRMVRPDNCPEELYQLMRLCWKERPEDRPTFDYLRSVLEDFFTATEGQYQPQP
T10 sequence (Q13177 whole entry): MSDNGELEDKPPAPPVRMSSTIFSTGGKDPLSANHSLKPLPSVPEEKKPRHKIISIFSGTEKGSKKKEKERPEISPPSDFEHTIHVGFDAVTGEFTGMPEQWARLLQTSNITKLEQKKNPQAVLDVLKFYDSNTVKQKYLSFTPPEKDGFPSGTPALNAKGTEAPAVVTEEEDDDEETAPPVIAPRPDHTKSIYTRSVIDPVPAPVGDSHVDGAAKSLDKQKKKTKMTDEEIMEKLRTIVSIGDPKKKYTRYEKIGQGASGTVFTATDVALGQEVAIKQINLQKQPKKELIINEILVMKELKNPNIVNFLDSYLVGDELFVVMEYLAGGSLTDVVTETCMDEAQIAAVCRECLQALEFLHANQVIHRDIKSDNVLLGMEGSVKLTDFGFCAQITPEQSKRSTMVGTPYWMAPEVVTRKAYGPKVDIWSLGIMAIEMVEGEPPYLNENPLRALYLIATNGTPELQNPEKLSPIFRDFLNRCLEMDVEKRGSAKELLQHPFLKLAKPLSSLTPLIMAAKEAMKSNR

As usually defined, the IC50 is the concentration needed to halve the response being measured. The low end stands for greater potency, the high end for weaker potency. In general, inhibition refers to the change of the read-out against control, counted positive when it falls. Consider `O=C(/C=C/c1ccc(O)c(O)c1)CCCCn1ccc2c(O)cccc21` [Compound 13a, (E)-1-(3,4-dihydroxyphenyl)-7-(4-hydroxy-1H-indol-1-yl)hept-1-en-3-one], for which the figures for the IC50 in experiment [1], in experiment [15] and in experiment [16] were 0.94 µM, 18.2 ± 0.9 µM and 28.8 ± 0.4 µM, respectively. Further, the inhibition at 1 µM in [1] (1 μM, Figure 4(B), read-out: Inhibition percentage at 1 μM) was above 50%; in [2] it was 4%; in experiment [3], 15%; in [4], 3%; in [5], 8%; in [6], -6%. Moreover, the inhibition at 1 µM in experiment [7] is 2%; in [8], 13%; in [9] it was -7%; in experiment [10] it was 4%; in [11], 12%; in experiment [12], 5%. Also, the inhibition at 1 µM in [13] was 8%; in experiment [14], 0%. The inhibition at 10 µM in experiment [1] (compound at 10 μM, average of two replicates, read-out: Inhibition percentage at 10 μM) amounted to 109%. For the same molecule, in experiment [17], the G0/G1 phase population result is reported as “decrease in the G0/G1 phase”. Also, the S phase population entry in experiment [17] was “dose-dependent increase in the S phase”. Also, the “population of Sub-G1 cells” value in [17] and in experiment [18] was “increased in a dose-dependent manner” throughout.
